pIC50: −log10 of the molar value. Where a name gives a salt, the structure may show the parent alone. Read-outs that look alike come from different tables or passages of the source.
Experiments:
Assay type in all cases: cell-based
BaF3 (EGFR/D770insSVD) = target: T1, BaF3 (EGFR/D770insSVD) (Homo sapiens, UniProt P00533, DUP768-770, cells depend on it); test: Test 13: EGFR exon 20 inserted D770insSVD cell proliferation test; conditions: BaF3 (EGFR/D770insSVD), 72 hours, Cell Titer-Glo, read-out: Test 13 IC50
T1 construct: Test 13 IC50 (nM); other: BaF3 (EGFR/D770insSVD), 72 hours, Cell Titer-Glo
Description: Test 13: EGFR Exon 20 Inserted D770insSVD Cell Proliferation Test
(§1) The number of viable cells in the culture was measured according to the protocol described in Promega's Cell Titer-Glo Luminescent cell Viability Assay (Promega catalog number #G7570). 90 μl of cells (3,000 cells/well) were cultured in growth medium in a Corning black transparent bottom 96-well plate, and cultured in a 5% CO2 humidified incubator at 37° C. overnight. The compound serially diluted in 100% DMSO was added to the cells using a pipette, and the cells were incubated for another 72 hours. 100 μl of the mixed Cell Titer-Glo reagent was added to the cells in the 96-well culture plate to lyse the cells and mix gently. Subsequently, the […] was detected on the Envision microplate detector to obtain the data of each compound. Finally, the data was input into a suitable software package (such as Prism) for curve fitting analysis.

BaF3 (EGFR/V769insASV) = BaF3 (EGFR/V769insASV) (Homo sapiens, UniProt P00533, DUP767-769, cells depend on it); test: Test 15: EGFR exon 20 inserted V769insASV cell proliferation test; conditions: 72 hours, Cell Titer-Glo, read-out: Test 15 IC50
Description: Test 15: EGFR Exon 20 Inserted V769insASV Cell Proliferation Test
as §1, with “(3000” for “(3,000”

BaF3 (EGFR/A763insFQEA) = BaF3 (EGFR/A763insFQEA) (Homo sapiens, UniProt P00533, INS763FQEA, cells depend on it); test: Test 14: EGFR exon 20 inserted A763insFQEA cell proliferation test; conditions: 72 hours, Cell Titer-Glo, read-out: Test 14 IC50
Description: Test 14: EGFR Exon 20 Inserted A763insFQEA Cell Proliferation Test
as §1

[1] = system: NCI-H1975 (EGFR L858R/T790M double mutant); test: Test 1: EGFR L858R/T790M (EGFR double mutant) cell proliferation test; conditions: Homo sapiens; NCI-H1975 cells, 72 hours, Cell Titer-Glo
Description: Test 1: EGFR L858R/T790M (EGFR Double Mutant) Cell Proliferation Test
The human lung cell line NCI-H1975 (EGFR L858R/T790M double mutant) was obtained from the American Type Culture Collection. NCI-H1975 cells were cultured in RPMI1640 medium containing 10% fetal bovine serum and 2 mM glutamine. The cells were grown at 37° C. in a humidified incubator with 5% CO2.
as §1, with “(8,000” for “(3,000”

Sequence of BaF3 (EGFR/V769insASV) (P00533 with tags, fused parts or gaps DUP767-769): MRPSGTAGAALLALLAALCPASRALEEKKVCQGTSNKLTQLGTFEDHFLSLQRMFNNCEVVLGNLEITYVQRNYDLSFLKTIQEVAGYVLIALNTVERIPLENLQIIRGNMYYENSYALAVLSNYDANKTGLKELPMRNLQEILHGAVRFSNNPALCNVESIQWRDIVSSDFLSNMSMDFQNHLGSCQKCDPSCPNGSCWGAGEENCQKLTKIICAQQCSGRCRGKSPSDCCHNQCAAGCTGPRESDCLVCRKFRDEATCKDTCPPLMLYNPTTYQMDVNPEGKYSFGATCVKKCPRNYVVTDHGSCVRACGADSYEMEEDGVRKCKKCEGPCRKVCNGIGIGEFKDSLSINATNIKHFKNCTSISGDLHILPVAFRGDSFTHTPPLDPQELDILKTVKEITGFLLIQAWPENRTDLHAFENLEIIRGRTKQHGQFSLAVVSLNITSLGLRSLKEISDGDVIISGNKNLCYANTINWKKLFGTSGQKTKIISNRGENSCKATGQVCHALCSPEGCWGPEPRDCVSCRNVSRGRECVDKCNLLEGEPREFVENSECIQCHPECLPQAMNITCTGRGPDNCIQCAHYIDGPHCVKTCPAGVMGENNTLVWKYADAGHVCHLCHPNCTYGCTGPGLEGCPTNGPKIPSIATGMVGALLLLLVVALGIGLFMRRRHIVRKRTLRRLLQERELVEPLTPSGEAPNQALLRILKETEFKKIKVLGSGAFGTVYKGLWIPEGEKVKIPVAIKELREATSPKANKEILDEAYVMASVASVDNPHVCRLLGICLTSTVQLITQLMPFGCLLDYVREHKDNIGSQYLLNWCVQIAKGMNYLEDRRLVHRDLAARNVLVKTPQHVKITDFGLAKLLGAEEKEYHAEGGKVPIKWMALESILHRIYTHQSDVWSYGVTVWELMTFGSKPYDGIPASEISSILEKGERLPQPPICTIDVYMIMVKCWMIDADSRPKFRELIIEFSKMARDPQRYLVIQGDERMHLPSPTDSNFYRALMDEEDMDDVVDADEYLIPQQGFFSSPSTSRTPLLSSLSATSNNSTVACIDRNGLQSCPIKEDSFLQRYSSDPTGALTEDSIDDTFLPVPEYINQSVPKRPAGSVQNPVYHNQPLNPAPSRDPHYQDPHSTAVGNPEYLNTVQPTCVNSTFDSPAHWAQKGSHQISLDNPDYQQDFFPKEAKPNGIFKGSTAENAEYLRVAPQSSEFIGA
Sequence of BaF3 (EGFR/A763insFQEA) (P00533 with tags, fused parts or gaps INS763FQEA): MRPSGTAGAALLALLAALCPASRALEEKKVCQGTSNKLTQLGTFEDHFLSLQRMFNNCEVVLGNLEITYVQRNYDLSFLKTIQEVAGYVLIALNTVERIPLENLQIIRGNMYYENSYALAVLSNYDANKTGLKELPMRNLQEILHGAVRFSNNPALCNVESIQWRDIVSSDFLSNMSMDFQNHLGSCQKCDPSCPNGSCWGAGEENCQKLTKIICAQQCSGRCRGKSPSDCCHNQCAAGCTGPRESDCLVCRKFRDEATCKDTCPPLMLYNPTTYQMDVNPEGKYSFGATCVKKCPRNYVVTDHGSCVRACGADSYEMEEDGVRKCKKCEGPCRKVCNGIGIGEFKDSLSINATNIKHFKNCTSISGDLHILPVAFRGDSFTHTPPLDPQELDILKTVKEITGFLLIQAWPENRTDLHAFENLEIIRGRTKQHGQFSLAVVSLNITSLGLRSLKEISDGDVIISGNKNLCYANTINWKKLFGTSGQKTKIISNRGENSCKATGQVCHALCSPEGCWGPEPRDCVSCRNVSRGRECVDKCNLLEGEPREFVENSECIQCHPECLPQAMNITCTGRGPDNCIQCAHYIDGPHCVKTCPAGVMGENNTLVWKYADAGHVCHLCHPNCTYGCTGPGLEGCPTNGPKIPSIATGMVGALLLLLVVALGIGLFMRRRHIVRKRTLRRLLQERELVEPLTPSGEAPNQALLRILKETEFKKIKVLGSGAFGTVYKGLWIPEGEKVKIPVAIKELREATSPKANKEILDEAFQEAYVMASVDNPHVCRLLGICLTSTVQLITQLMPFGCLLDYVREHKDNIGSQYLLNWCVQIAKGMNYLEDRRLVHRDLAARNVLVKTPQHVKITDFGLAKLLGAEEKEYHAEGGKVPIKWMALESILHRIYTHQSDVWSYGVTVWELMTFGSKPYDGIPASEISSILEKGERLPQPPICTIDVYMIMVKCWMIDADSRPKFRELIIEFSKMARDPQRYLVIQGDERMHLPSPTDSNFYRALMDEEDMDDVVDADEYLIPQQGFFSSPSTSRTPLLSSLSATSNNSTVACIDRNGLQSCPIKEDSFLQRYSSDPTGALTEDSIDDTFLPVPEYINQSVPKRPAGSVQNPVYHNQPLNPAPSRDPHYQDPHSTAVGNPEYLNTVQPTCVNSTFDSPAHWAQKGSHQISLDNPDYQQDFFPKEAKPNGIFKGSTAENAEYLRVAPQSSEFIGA
T1 sequence (P00533 with tags, fused parts or gaps DUP768-770): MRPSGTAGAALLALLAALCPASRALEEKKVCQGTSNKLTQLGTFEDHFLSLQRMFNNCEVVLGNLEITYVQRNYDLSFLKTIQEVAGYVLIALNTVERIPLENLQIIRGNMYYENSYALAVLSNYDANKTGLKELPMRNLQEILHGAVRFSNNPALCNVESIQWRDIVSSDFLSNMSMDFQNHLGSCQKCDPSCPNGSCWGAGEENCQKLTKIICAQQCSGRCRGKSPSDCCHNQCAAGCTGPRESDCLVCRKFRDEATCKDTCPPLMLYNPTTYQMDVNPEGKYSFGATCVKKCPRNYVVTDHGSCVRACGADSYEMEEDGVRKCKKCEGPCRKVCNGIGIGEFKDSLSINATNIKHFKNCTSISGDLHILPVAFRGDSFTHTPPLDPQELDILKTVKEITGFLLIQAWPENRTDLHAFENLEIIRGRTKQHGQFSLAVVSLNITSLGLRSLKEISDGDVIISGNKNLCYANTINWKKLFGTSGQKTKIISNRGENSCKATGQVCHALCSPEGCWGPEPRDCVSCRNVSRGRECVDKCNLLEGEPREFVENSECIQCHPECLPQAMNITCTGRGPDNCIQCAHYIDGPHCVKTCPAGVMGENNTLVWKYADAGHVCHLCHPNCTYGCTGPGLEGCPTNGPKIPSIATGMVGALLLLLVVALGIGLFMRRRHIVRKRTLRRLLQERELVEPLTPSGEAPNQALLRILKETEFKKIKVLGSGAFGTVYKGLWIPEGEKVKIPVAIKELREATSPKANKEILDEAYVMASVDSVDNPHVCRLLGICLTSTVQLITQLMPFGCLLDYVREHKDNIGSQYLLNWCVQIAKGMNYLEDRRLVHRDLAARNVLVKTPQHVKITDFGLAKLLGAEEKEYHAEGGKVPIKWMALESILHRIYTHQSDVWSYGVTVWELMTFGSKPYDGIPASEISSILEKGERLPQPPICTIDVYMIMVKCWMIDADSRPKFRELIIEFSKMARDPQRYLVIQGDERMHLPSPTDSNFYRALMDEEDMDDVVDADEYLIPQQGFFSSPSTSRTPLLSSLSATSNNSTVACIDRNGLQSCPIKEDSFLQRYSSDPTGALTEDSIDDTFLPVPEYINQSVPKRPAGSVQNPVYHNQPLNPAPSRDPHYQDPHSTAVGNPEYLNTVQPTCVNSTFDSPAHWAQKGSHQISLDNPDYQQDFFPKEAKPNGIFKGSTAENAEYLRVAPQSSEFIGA

Structure (SMILES) | GI50 (BaF3 (EGFR/D770insSVD)) [nM] | GI50 (BaF3 (EGFR/V769insASV)) [nM] | GI50 (BaF3 (EGFR/A763insFQEA)) [nM] | GI50 (BaF3 (EGFR/D770insSVD); hydrochloride) [nM] | GI50 (BaF3 (EGFR/V769insASV); hydrochloride) [nM] | GI50 (BaF3 (EGFR/A763insFQEA); hydrochloride) [nM] | pIC50 [1]
C=CC(=O)Nc1cc(Nc2ncnc(-c3cnc4c(C)cccn34)n2)c(OC)cc1N(C)CCN(C)C [Compound 19, N-(2-((2-(dimethylamino)ethyl)(methyl)amino)-4-methoxy-5-((4-(8-methylimidazole[1,2-a]pyridin-3-yl)-1,3,5-triazin-2-yl)amino)phenyl)acrylamide] | 144 | 148 | 42.6 |  |  |  | 
C=CC(=O)Nc1cc(Nc2nccc(-c3cn(C)c4ccc(F)cc34)n2)c(OC(F)F)cc1N(C)CCNC [Compound 20, N-(4-(difluoromethoxy)-5-((4-(5-fluoro-1-methyl-1H-indol-3-yl)pyrimidin-2-yl)amino)-2-(methyl(2-(methylamino)ethyl)amino)phenyl)acrylamide] | 89.2 | 155 | 75.1 |  |  |  | 
C=CC(=O)Nc1cc(Nc2nccc(-c3cn(C)c4ccc(F)cc34)n2)c(OC)cc1N(C)CCN(C)C [Compound 21, N-(2-((2-(dimethylamino)ethyl)(methyl)amino)-5-((4-(5-fluoro-1-methyl-1H-indol-3-yl)pyrimidin-2-yl)amino)-4-methoxyphenyl)acrylamide] | 81 | 98.6 | 50.1 |  |  |  | 
C=CC(=O)Nc1cc(Nc2nccc(-c3cn(C)c4ccc(F)cc34)n2)c(OCC)cc1N(C)CCN(C)C [Compound 22, N-(2-((2-(dimethylamino)ethyl)(methyl)amino)-4-ethoxy-5-((4-(5-fluoro-1-methyl-1H-indol-3-yl)pyrimidin-2-yl)amino)phenyl)acrylamide] | 248 | 365 | 193 |  |  |  | 
C=CC(=O)Nc1cc(Nc2nccc(-c3cn(C)c4ccccc34)n2)c(OCC)cc1N(C)CCN(C)C [Compound 23, N-(2-((2-(dimethylamino)ethyl)(methyl)amino)-4-ethoxy-5-((4-(1-methyl-1H-indole-3-yl)pyrimidin-2-yl)amino)phenyl)acrylamide] | 219 | 264 | 122 |  |  |  | 
C=CC(=O)Nc1cc(Nc2nccc(-c3cn(C)c4ccccc34)n2)c(OCC)cc1N(C)CCNC [Compound 24, N-(4-ethoxy-2-(methyl(2-(methylamino)ethyl)amino)-5-((4-(1-methyl-1H-indol-3-yl)pyrimidine-2-yl)amino)phenyl)acrylamide] | 207 | 266 | 213 |  |  |  | 
C=CC(=O)Nc1cc(Nc2nccc(-c3cn(C)c4ccc(F)cc34)n2)c(OC)cc1N(C)CCNC [Compound 25, N-(5-((4-(5-fluoro-1-methyl-1H-indol-3-yl)pyrimidin-2-yl)amino)-4-methoxy-2-(methyl(2-(methylamino)ethyl)amino)phenyl)acrylamide] | 78.9 | 104 | 51 |  |  |  | 
C=CC(=O)Nc1cc(Nc2nccc(-c3cn(C)c4ccccc34)n2)c(OC(F)F)cc1N(C)CCNC [Compound 26, N-(4-(difluoromethoxy)-2-(methyl(2-(methylamino)ethyl)amino)-5-((4-(1-methyl-1H-indole-3-yl)pyrimidin-2-yl)amino)phenyl)acrylamide] | 142 | 126 | 38.3 |  |  |  | 
C=CC(=O)Nc1cc(Nc2nccc(-c3cn(C)c4ccc(F)cc34)n2)c(OCC)cc1N(C)CCNC [Compound 27, N-(4-ethoxy-5-((4-(5-fluoro-1-methyl-1H-indol-3-yl)pyrimidin-2-yl)amino)-2-(methyl(2-(methylamino)ethyl)amino)phenyl)acrylamide] | 195 | 319 | 177 |  |  |  | 
C=CC(=O)Nc1cc(Nc2nccc(-c3cn(C4CC4)c4ccccc34)n2)c(OC)cc1N(C)CCN(C)C [Compound 28, N-(5-((4-(1-cyclopropyl-1H-indole)pyrimidin-2-yl)-2-((2-(dimethylamino)ethyl(methyl)amine)-4-methoxyphenyl)acrylamide hydrochloride] |  |  |  | 237 | 176 | 66.4 | 
C=CC(=O)Nc1cc(Nc2nccc(-c3cn(C4CC4)c4ccccc34)n2)c(OC)cc1N(C)CCN(C)C [Compound 29, N-(5-((4-(1-cyclopropyl-1H-indole)pyrimidin-2-yl)-2-((2-(dimethylamino)ethyl(methyl)amine)-4-methoxyphenyl)acrylamide methanesulfonate] | 240 | 174 | 60.7 |  |  |  | 
C=CC(=O)Nc1cc(Nc2nccc(-c3cn(C4CC4)c4ccccc34)n2)c(OC)cc1N(C)CCN(C)C [Compound 30] | 239 | 177 | 63.6 |  |  |  | 
C=CC(=O)Nc1cc(Nc2nccc(-n3cc(CN(C)C)c(-c4ccccc4)n3)n2)c(OC)cc1N1CCOCC1 [Compound 34, N-(5-((4-(4-((dimethylamine)methyl)-3-phenyl-1H-pyrazol-1-yl)pyrimidin-2-yl)amine)-4-methoxy-2-morpholinylphenyl)acrylamide] | 598 | 406 | 53.8 |  |  |  | 
C=CC(=O)Nc1cccc(Oc2nc(Nc3ccc(N4CCN(C)CC4)c(F)c3)nc3[nH]ccc23)c1 [Compound 35, N-(3-((2-((3-fluoro-4-(4-methylpiperazin-1-yl)phenyl)amine)-7H-pyrazole[2,3-d]pyrimidine-4-yl)oxo)phenyl)acrylamide] | 146 | 105 | 106 |  |  |  | 
C=CC(=O)Nc1cccc(Oc2nc(Nc3ccc(N4CCN(C)CC4)cc3)nc3ccsc23)c1 [Compound 36, N-(3-((2-((4-(4-methylpiperazin-1-yl)phenyl)amine)thieno[3,2-d]pyrimidin-4-yl)oxo)phenyl)acrylamide] | 454 | 325 | 170 |  |  |  | 
COc1cc2ncnc(Nc3cccc(Cl)c3F)c2cc1OC(=O)N1CCN(C)C[C@H]1C [Compound 38] | > 3330 | > 3330 | 71.2 |  |  |  | 
Cc1cc(C(=O)Nc2nc3cccc(Cl)c3n2[C@@H]2CCCCN(C(=O)/C=C/CN(C)C)C2)ccn1 [Compound 39, (R,E)-N-(7-chloro-1-(1-(4-(dimethylamine)-2-butenoyl)azepane-3-yl)-1H-benzo[d]imidazol-2-yl)-2-methylisonicotinamide] | 963 | 455 | 309 |  |  |  | 
COc1cc(N2CC[C@@H]2CN(C)C)c(NC(=O)/C=C/CN(C)C)cc1Nc1ncnc(-n2ccc3cnccc32)n1 [Example 2, (R,E)-N-(5-((4-(1H-pyrrole[3,2-c]pyridin-1-yl)-1,3,5-triazin-2-yl)amino)-2-(2-((dimethylamino)methyl)azetidine-1-yl)-4-methoxyphenyl)-4-(dimethylamino)butene-2-amide] |  |  |  |  |  |  | 6.89
C=CC(=O)Nc1cc(Nc2ncnc(-n3nc(F)c4ccccc43)n2)c(OC)cc1N(C)CCN(C)C [Example 3, N-(2-((2-(dimethylamino)ethyl)(methyl)amino)-5-((4-(3-fluoro-1H-indazol-1-yl)-1,3,5-triazin-2-yl)amino)-4-methoxyphenyl)acrylamide] |  |  |  |  |  |  | 7.24
C=CC(=O)Nc1cc(Nc2nccc(-n3nc(F)c4ccccc43)n2)c(OC)cc1N(C)CCN(C)C [Example 7] |  |  |  |  |  |  | 7.24

Source: patent US12258344B2, “Azaaromatic amide derivatives for the treatment of cancer” (SHENZHEN FORWARD PHARMACEUTICALS CO., LTD., priority 2019, dated 2025)
